The values that follow come from US20110200549A1, “Organic Compounds Suitable For Modulating Fragrance Compositions” (priority 2008, published 2011).

One assay addresses T1, CYP2B6 (Homo sapiens, UniProt P20813).
T1 construct: made in house; host or cells: Sf9 insect cells, recombinant baculoviruses, coexpressed with P450 reductase
T1 sequence (P20813 1-491): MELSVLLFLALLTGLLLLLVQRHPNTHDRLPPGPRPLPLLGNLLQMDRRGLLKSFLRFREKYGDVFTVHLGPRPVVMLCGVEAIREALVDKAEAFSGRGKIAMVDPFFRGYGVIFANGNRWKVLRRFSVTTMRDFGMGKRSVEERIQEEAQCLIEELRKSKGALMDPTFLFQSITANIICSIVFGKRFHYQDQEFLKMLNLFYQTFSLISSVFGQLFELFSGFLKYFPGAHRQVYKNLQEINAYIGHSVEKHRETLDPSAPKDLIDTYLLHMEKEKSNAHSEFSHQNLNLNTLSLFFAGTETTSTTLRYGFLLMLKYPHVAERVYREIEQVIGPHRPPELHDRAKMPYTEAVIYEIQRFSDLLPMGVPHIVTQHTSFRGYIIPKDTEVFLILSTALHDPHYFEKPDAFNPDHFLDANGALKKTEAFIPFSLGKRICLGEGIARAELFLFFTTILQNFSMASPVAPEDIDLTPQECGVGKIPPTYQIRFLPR
Description: CYP2B6 inhibition, 7-ethoxy-4-trifluoromethyl-coumarin fluorescence assay in microsomes. The format is biochemical. To be noted: CYP2B6 + P450 reductase microsomes, 7-ethoxy-4-trifluoromethyl-coumarin 6 μM, 40 min at 37° C.; read-out: CYP2B6 inhibitor activity IC50. As for the experimental part: Test compounds that inhibit the activity of CYP2B6 are identified by using the same principle as described in Example 42, first paragraph.
A test compound (details see Table 2) was incubated with CYP2B6 in the presence of a cytochrome P450 reductase. CYP2B6 and P450 reductase are produced using recombinant baculoviruses and co-expressing the two proteins in Sf9 insect cells as described in Example 42. Alternatively, microsomes containing CYP2B6 and the reductase are commercially available (BD Biosciences Gentest, USA). Microsomes were used which contained 1.5 pmoles CYP2B6. Potassium phosphate buffer final concentration was 100 mM, (1M stock, pH 7.4). The test compound was prepared as a 50 mM stock solution in acetonitrile. The concentration of the standard substrate 7-ethoxy-4-trifluoromethyl-coumarin was 6 μM. Several samples of the test compound were prepared at various concentrations to give different final concentrations in the reaction: 0, 0.005, 0.01, 0.02, 0.05, 0.1 and 0.2 mM. […] The final total volume was 0.2 ml, which is suitable for microtiter plate measurements. The samples were incubated for 40 min at 37° C. After 40 min, the enzymatic reaction was stopped by the addition of […] 0.5M Tris-base/acetonitrile (18:72). 0.005 ml of a solution of 50 mM NADPH in water was added to the control reaction which corresponds to the reaction with test compound and enzyme but without NADPH, and as a consequence, no 4-trifluoromethyl-umbelliferone was formed. Denatured proteins and other insoluble parts were separated by centrifugation (5 min, 1800 rpm, at 10° C.).
The samples were analysed spectrofluorometrically which allows to detect the formation of 4-trifluoromethyl-umbelliferone as the enzymatic product at an excitation wavelength of 410 nm and an emission wavelength of 510 nm.

The next assay deals with T2, CYP2A13 (Homo sapiens, UniProt Q16696).
T2 construct: made in house; host or cells: Sf9 insect cells, recombinant baculovirus
T2 sequence (Q16696 1-494): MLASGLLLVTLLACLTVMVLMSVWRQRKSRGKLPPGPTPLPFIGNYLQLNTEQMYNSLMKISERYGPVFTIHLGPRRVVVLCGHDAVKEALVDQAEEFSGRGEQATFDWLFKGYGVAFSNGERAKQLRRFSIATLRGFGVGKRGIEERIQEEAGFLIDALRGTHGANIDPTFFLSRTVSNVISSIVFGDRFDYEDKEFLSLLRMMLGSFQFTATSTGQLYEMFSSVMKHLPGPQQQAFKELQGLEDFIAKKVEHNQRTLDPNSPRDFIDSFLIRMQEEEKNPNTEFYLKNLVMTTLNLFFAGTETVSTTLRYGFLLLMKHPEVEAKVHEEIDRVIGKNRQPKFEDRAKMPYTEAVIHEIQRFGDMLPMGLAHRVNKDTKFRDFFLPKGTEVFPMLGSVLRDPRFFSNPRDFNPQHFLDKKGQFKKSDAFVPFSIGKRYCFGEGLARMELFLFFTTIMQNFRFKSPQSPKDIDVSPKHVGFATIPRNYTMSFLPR
Description: CYP2A13 inhibition, coumarin 7-hydroxylation (Umbelliferone fluorescence) in microsomes. Type of assay: biochemical. Conditions: recombinant CYP2A13 + P450 reductase microsomes, coumarin 0.006 mM, 60 min at 37° C.; read-out: CYP2A13 inhibitor activity IC50. As for the experimental part:
Compounds that inhibit the activity of CYP2A13 are identified by using a standard reaction established for the enzyme. A known substrate is coumarin, and the product of the enzymatic reaction is 7-hydroxy-coumarin (Umbelliferone) which is strongly fluorescent. When a compound is added to the standard reaction and the formation of Umbelliferone is decreased, the compound is identified as an inhibitor, which can also be a competitive substrate of the enzyme. The compound is used at various concentrations and the concentration-dependent decrease in Umbelliferone formation allows to determine the concentration where the activity of the enzyme is reduced to the 50% level (IC50 value).
A test compound (details see Table 1) was incubated with CYP2A13 in the presence of a cytochrome P450 reductase. CYP2A13 and P450 reductase were employed in form of microsomes. CYP2A13 was produced in Sf9 cells using a recombinant baculovirus, under conditions known to the person skilled in the art, for example, as described in WO 2006/007751. P450 reductase is commercially available (BD Biosciences Gentest, USA). Preferably, the two enzymes are coexpressed in the same insect cells and microsomes prepared which contain both enzymes. The art of coexpression of two enzymes is known, and the coexpression CYP2A13 and P450 reductase is described in WO 2006/007751. […] An MOI of 4 for recombinant CYP2A13 baculovirus combined with an MOI of 3.5 for recombinant P450 reductase baculovirus routinely produced microsomes with considerable activity.
Microsomes were used which contained 7 pmoles CYP2A13. Tris buffer (1 M, pH 7.6) and water were added to give a buffer concentration of 0.1M. The test compound was prepared as a 50 mM stock solution in acetonitrile. The concentration of the standard substrate coumarin was 0.006 mM. Several samples of the test compound were prepared at various concentrations to give different final concentrations in the reaction: 0, 0.005, 0.01, 0.02, 0.05, 0.1 and 0.2 mM. The mixture was incubated for 10 min at 37° C. prior to the initiation of the enzymatic reaction by the addition of 0.005 ml of a solution of 50 mM NADPH in water. The final total volume was 0.2 ml, which is suitable for microtiter plate measurements. The samples were incubated for 60 min at 37° C. After 60 min, the enzymatic reaction was stopped by the addition of 0.02 ml cold 50% trichloroacetic acid (TCA) and incubated at 4° C. for 15 min. 0.005 ml of a solution of 50 mM NADPH in water was added to the control reaction which corresponds to the reaction without test compound and without NADPH, and as a consequence, no Umbelliferone was formed. Denatured proteins and other insoluble parts were separated by centrifugation (10 min, 560×g, room-temperature).
The samples were analysed spectrofluorometrically which allows to detect the formation of Umbelliferone as the enzymatic product of coumarin at an excitation wavelength of 340 nm and an emission wavelength of 480 nm.

The nature of assay [1]: Sensory panel study with olfactometer (Virtual Aroma Synthesizer): modulation of a fragrance accord by the inhibitor. More on the design: species or system human. Conditions: 10-ingredient fragrance accord with vs without inhibitor, random order, panelists. As for the experimental part:
For each panelist, the inhibitor was tested by itself and confirmed that it was rated as being odorless at the given concentration.
Sensory studies are performed using an olfactometer, such as the Virtual Aroma Synthesizer (VAS) which is described in Chimia (2001) 55:401-405. The instrument allows to combine saturated headspace of different samples from different containers at various dilutions in order to determine the effect on the odor of the mixture produced in headspace. For the particular example, in one container the fragrance accord (1 gram) was adsorbed on beads (4 grams) and in another container the inhibitor N-(cyclopropylmethyl)-N-pentylacetamide was adsorbed on beads (4 grams).
Panelists were selected having different levels of experience and expertise in smelling, rating, describing and evaluating odorants, accords and perfumes. Panelists smelled the accord with or without the inhibitor at random order, not knowing which one was presented. Before and after the session, it was confirmed that the inhibitor alone was odorless.

In general, IC50 refers to the concentration at which inhibition is half-maximal. Take `CCCCCN(CC1CC1)C(C)=O` [Ex. 10, N-(cyclopropylmethyl)-N-pentylacetamide]: the half-inhibitory concentration (IC50) at CYP2B6 turned out to be 87 µM; at CYP2A13, 0.5 µM. Moreover, the “Effect on the odor of the fragrance accord attributed to the presence of the inhibitor” value in assay [1] was “intensifying or boosting the fruitiness of the accord”.
